Laboratory results reported in US11976083B2, “Inhibitors of peptidylarginine deiminases” (Gilead Sciences, Inc., priority 2020, dated 2024).

Target: T1, human PAD4 (Homo sapiens, UniProt Q9UM07)
T1 construct: human PAD4 (NM_012387), A2-P663, was PCR amplified; His-SUMO (N, cleaved yes); made in house; host or cells: E. coli BL21(DE3)
Test: In vitro PAD4 BAEE biochemical assay
Details: BAEE substrate 3 mM, 5 nM PAD4, 2 mM calcium chloride; geometric mean of multiple experiments
Outline: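 Recombinant human PAD4 (5 nM final) with 2 mM CaCl2 was preincubated with compound 30 min at 25 °C in MOPS buffer pH 7.6, then reacted with 3 mM BAEE for 2 h at 25 °C. After EDTA stop, released ammonia was detected by o-phthalaldehyde/DTT fluorescence (ex 405/em 535 nm); IC50 from four-parameter fit, geometric mean.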

T1 sequence (Q9UM07 2-663): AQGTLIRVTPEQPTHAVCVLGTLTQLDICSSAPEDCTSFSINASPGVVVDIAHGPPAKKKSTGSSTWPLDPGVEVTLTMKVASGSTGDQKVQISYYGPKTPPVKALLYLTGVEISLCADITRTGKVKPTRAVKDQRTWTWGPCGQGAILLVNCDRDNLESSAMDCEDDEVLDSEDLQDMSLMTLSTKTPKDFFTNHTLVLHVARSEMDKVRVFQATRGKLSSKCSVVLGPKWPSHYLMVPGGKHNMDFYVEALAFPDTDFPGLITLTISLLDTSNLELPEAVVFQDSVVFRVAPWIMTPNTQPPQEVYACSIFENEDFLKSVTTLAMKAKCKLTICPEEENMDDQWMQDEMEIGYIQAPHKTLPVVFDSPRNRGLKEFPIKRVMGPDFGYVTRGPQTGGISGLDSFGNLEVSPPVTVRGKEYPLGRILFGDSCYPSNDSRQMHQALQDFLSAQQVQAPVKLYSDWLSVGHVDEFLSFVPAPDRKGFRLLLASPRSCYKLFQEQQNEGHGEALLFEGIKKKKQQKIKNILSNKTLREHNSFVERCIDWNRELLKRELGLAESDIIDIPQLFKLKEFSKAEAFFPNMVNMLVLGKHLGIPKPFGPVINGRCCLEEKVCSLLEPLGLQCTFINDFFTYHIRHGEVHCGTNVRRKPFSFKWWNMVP

| IC50 [nM] | Structure (SMILES) |
| --- | --- |
| 28 | COc1cc(C(=O)N2C[C@H](N)[C@@H]3CC[C@H]2C3)cc2nc(-c3cc4ccc5nc4n3CC(F)(F)CCC[C@@H]3C[C@H]3C(=O)N[C@@H]5C)n(C3CC3)c12 [Example 766, (2~{R},5~{R},7~{R})-14-[5-[(1~{S},4~{R},5~{R})-4-amino-2-azabicyclo[3.2.1]octane-2-carbonyl]-1-cyclopropyl-7-methoxy-benzimidazol-2-yl]-11,11-difluoro-2-methyl-3,13,19-triazatetracyclo [11.5.2.0^{5,7}.0^{16,20}] icosa-1(19),14,16(20),17-tetraen-4-one] |
| 11 | C[C@H]1NC(=O)[C@@H]2C[C@@]2(F)CCCCCn2c(-c3nc4cc(C(=O)N5C[C@H](N)[C@@H]6CC[C@H]5C6)cc(F)c4n3C)cc3ccc1nc32 [Example 717, (2~{R},5~{S},7~{S})-14-[5-[(1~{S},4~{R},5~{R})-4-amino-2-azabicyclo[3.2.1]octane-2-carbonyl]-7-fluoro-1-methyl-benzimidazol-2-yl]-7-fluoro-2-methyl-3,13,19-triazatetracyclo [11.5.2.0^{5,7}.0^{16,20}] icosa-1(19),14,16(20), 17-tetraen-4-one] |
| 74 | COc1cc(C(=O)N2CCC[C@@H](N)C2)cc2nc(-c3cc4ccc5nc4n3CCCCCc3cccc(C)c3C(=O)N[C@@H]5C)n(C)c12 [Example 361, (2~{R})-17-[5-[(3~{R})-3-aminopiperidine-1-carbonyl]-7-methoxy-1-methyl-benzimidazol-2-yl]-2,6-dimethyl-3,16,22-triazatetracyclo[14.5.2.0^{5,10}.0^{19,23}] tricosa-1(22),5(10),6,8,17,19(23),20-heptaen-4-one] |
| 74 | COc1cc(C(=O)N2CC[C@@H](OC)[C@@H](N)C2)cc2nc(-c3cc4ccc5nc4n3CCCCCc3ccnc(C)c3C(=O)N[C@@H]5C)n(C)c12 [Example 697, (2~{R})-17-[5-[(3~{S}, 4~{R})-3-amino-4-methoxy-piperidine-1-carbonyl]-7-methoxy-1-methyl-benzimidazol-2-yl]-2,6-dimethyl-3,7,16,22-tetrazatetracyclo[14.5.2.0^ {5,10}.0^{19,23}] tricosa-1(22),5(10),6,8,17, 19(23),20-heptaen-4-one] |
| 96 | COc1cc(C(=O)N2CC[C@@H](OC)[C@@H](N)C2)cc2nc(-c3cc4ccc5nc4n3CC(F)(F)CCCC[C@](C)(C(F)(F)F)C(=O)N[C@@H]5C)n(C)c12 [Example 733, (8~{S},11~{R})-17-[5-[(3~ {S},4~{R})-3-amino-4-methoxy-piperidine-1-carbonyl]-7-methoxy-1-methyl-benzimidazol-2-yl]-3,3-difluoro-8,11-dimethyl-8-(trifluoromethyl)-1,10,19-triazatricyclo[10.5.2.0^ {15,18}]nonadeca-12(19),13,15(18),16-tetraen-9-one] |
| 16 | COc1cc(C(=O)N2[C@H]3CC[C@@H]2[C@H](N)C3)cc2nc(-c3cc4ccc5nc4n3C[C@H]3C[C@@H]3COCC(=O)N[C@@H]5C)c(C)n12 [Example 325, (3~{S},5~{S},11~{R})-17-[7-[(1~{R},2~{R},4~{S})-2-amino-7-azabicyclo[2.2.1]heptane-7-carbonyl]-5-methoxy-3-methyl-imidazo[1,2-a]pyridin-2-yl]-11-methyl-7-oxa-1,10,19-triazatetracyclo[10.5.2.0^{3,5}.0^{15,18}] nonadeca-12(19),13,15(18),16-tetraen-9-one] |
| 49 | COc1cc(C(=O)N2C[C@H](N)[C@@H]3CC[C@H]2C3)cc2nc(-c3cc4ccc5nc4n3CCCCCc3cc(F)c(F)cc3C(=O)N[C@@H]5C)n(C)c12 [Example 927, (2~{R})-17-[5-[(1~{S},4~{R}, 5~{R})-4-amino-2-azabicyclo [3.2.1]octane-2-carbonyl]-7-methoxy-1-methyl-benzimidazol-2-yl]-7,8-difluoro-2-methyl-3,16,22-triazatetracyclo[14.5.2.0^ {5,10}.0^{19,23}]tricosa-1(22),5(10),6,8,17,19(23),20-heptaen-4-one] |

Continued, compound first:

| Structure (SMILES) | IC50 [nM] |
| --- | --- |
| COc1cc(C(=O)N2CCC[C@@H](N)C2)cc2nc(-c3cc4ccc5nc4n3C[C@H]3C[C@H]3COCC(C)(C)C(=O)N[C@@H]5C)n(C)c12 [Example 310, (3~{S},5~{R},12~{R})-18-[5-[(3~{R})-3-aminopiperidine-1-carbonyl]-7-methoxy-1-methyl-benzimidazol-2-yl]-9,9,12-trimethyl-7-oxa-1,11,20-triazatetracyclo[11.5.2.0^{3,5}.0^{16,19}] icosa-13(20),14,16(19),17-tetraen-10-one] | 135 |
| COc1cc(C(=O)N2CCC[C@@H](N)C2)cc2nc(-c3cc4ccc5nc4n3CCCC#Cc3cnn(C)c3C(=O)N[C@@H]5C)n(C)c12 [Example 171, (2~{R})-16-[5-[(3~{R})-3-aminopiperidine-1-carbonyl]-7-methoxy-1-methyl-benzimidazol-2-yl]-2,6-dimethyl-3,6,7,15,21-pentazatetracyclo[13.5.2.0^{5,9}.0^{18,22}] docosa-1(21),5(9),7,16,18(22),19-hexaen-10-yn-4-one] | 804 |
| COc1cc(C(=O)N2[C@H]3CC[C@@H]2[C@H](N)C3)cc2nc(-c3cc4ccc5nc4n3C[C@H]3CC[C@H]3COCCC(=O)N[C@@H]5C)c(C)n12 [Example 8, (3~{S},6~{R},13~{R})-19-[7-[(1~{R},2~{R},4~{S})-2-amino-7-azabicyclo[2.2.1]heptane-7-carbonyl]-5-methoxy-3-methyl-imidazo[1,2-a]pyridin-2-yl]-13-methyl-8-oxa-1,12,21-triazatetracyclo[12.5.2.0^{3,6}.0^{17,20}] henicosa-14(21),15,17(20),18-tetraen-11-one] | 71 |
| COc1cc(C(=O)N2CCC[C@@H](N)C2)cn2nc(-c3cc4ccc5nc4n3CCCCCCCC(=O)N[C@@H]5C)c(C)c12 [Example 26, (11~{R})-17-[6-[(3~{R})-3-aminopiperidine-1-carbonyl]-4-methoxy-3-methyl-pyrazolo[1,5-a]pyridin-2-yl]-11-methyl-1,10,19-triazatricyclo[10.5.2.0^{15,18}]nonadeca-12(19),13,15(18),16-tetraen-9-one] | 86 |
| C[C@H]1NC(=O)c2nccnc2CCCCCn2c(-c3nc4cc(C(=O)N[C@H]5CNCC[C@@H]5F)c(F)cc4n3C3CC3)cc3ccc1nc32 [Example 243, 1-cyclopropyl-6-fluoro-~{N}-[(3~{S},4~{S})-4-fluoro-3-piperidyl]-2-[(2~{R})-2-methyl-4-oxo-3,6,9,16,22-pentazatetracyclo[14.5.2.0^{5,10}.0^{19, 23}]tricosa-1(21),5(10),6,8,17,19,22-heptaen-17-yl]benzimidazole-5-carboxamide] | 68 |
| COc1cc(C(=O)N2[C@H]3CC[C@@H]2[C@H](N)C3)cc2nc(-c3cc4ccc5nc4n3CCCCOCC(=O)N3CCC[C@H]53)n(C)c12 [Example 133, (2~{R})-15-[5-[(1~{R},2~{R},4~{S})-2-amino-7-azabicyclo[2.2.1]heptane-7-carbonyl]-7-methoxy-1-methyl-benzimidazol-2-yl]-9-oxa-6,14,20-triazatetracyclo[12.5.2.0^{2,6}.0^{17,21}] henicosa-1(20),15,17(21),18-tetraen-7-one] | 47 |
